Assay results: patent publication US5444161A, “Substrates for β-galactosidase” (Microgenics Corporation, priority 1989, dated 1995)
Converted amounts (≈) assume the structure as drawn.

Key:
[1] = Spontaneous hydrolysis rate of substrates (stability); type: physicochemical; settings: room temperature; normalized to 10 μg/ml starting concentration of substrate
Procedure: (§1) Table 1 gives the absorbance wavelength maximum (λmax) for the substrate and the reaction product, the molar extinction coefficient ε for the substrate and the reaction product, the solubility, and the spontaneous hydrolysis rate of the new substrates (stability). ONPG, the standard β-galactosidase substrate, is listed for comparision.
*Hydrolysis is measured at room temperature. Results are normalized to 10
μg/ml starting concentration of substrate.

β-galactosidase [2] = test: CEDIA folate assay with new substrates; type: biochemical; settings: relative to OCNPG, [Substrate]/Km: DNPG 3.2x, m-CN-NPG 2.5x, NGPG 3.2x; for % Open: absence of antibody; for % Inhib: inhibitory antibody; for High calib % Mod / High calib % Net: saturating analyte
Excerpt: (§2) β-galactosidase-analyte conjugates may be used in a variety of diagnostic assays. The subject compounds may be used in conjunction with these assays. Such assays may be used to determine the presence and/or concentration of various compounds, including specific proteins, carbohydrates, and polynucleotides. The assays may be heterogenous, including ELISA assays. In particular the subject compounds may be employed in CEDIA™ assays. CEDIA™ assays measure the amount of an analyte by means of the ability of the analyte to affect the observed enzyme activity when employing an anti-analyte antibody binding reaction to a β-galactosidase α complementing fragment conjugated to analyte or cross reactive compound. In the absence of free analyte, the observed β-galactosidase activity is lower. Thus in CEDIA™ assays β-galactosidase activity increases as the amount of analyte increases. CEDIA™ assays make use of the α complementation phenomenon between ED and EA as described in detail in U.S. Pat. No. 4,708,929.
(§3) The ability of the new substrates to function in CEDIA™ assays was tested. All values are relative to reaction rates using OCNPG (o-chloro-nitrophenyl-β-D-galactopyranoside). […] CEDIA™ assays for T3 (the thyroid hormone, triiodothyronine), digoxin, and folate were performed.
(§4) The terms in table 3 are defined as follows. [Substrate]/Km is the ratio of the concentation of substrate used in the assay to the Km of the enzyme for that substrate. The %open, %inhibition, %mod, and %net figures are all given relative to the results obtained with OCNPG.
(§5) %Open is the reaction rate in the absence of antibody. The figure given in table 3 is the reaction rate relative to the reaction rate obtained with OCNPG.
(§6) %Inhibition is defined as the difference between the reaction rate rate in the absence of antibody and the reaction rate in the presence of the inhibitory antibody found in the CEDIA™ assays, divided by the reaction rate in the absence of antibody. The figures given in table 3 are relative to the % inhibition figure obtained with OCNPG as substrate.
(§7) %Net is defined as the difference between the reaction rate of a CEDIA™ assay using the test substrate in the absence of analyte and presence of antibody and the same reaction in the presence of a saturating amount of analyte (i.e. maximum attainable reaction rate) and presence of antibody, divided by the difference between the reaction rate using OCNPG in the absence of analyte and presence of antibody, and the reaction rate with OCNPG using a saturating amount of analyte and presence of antibody.
(§8) %Mod is defined as the difference between the reaction rate of a CEDIA™ assay in the absence of analyte and presence of antibody and the same reaction in the presence of a saturating amount of analyte (i.e., maximum attainable reaction rate) and presence of antibody, divided by the same figure obtained for the reaction rate in the presence of a saturating amount analyte. The greater the %mod, the greater the range of analyte concentrations over which the assay will be effective. The figure given in Table 3 is the mod figure obtained for the new subtrate, divided by the %mod figure divided %mod figure obtained for OCNPG.

β-galactosidase [3] = test: CEDIA digoxin assay with new substrates; type: biochemical; settings: relative to OCNPG, [Substrate]/Km 4.0x; for % Open: absence of antibody; for % Inhib: inhibitory antibody; for High calib % Mod / High calib % Net: saturating analyte
Excerpt: as §2, §3, §4, §5, §6, §7, §8

EA + ED28-digoxigenin = test: Kinetic properties of substrates with EA + ED28-digoxigenin; type: biochemical; settings: for Km / Vm Ratio to ONPG: no antibodies; for Km: four or five substrate concentrations; for Vm Ratio to ONPG / Turnover % ONPG: relative to ONPG
Procedure: (§9) The ability of the subject compounds to act as substrates for β-galactosidase and ED28-digoxigenin+EA was measured and compared with the results obtained with ONPG. ED28-digoxigenin+EA are a β-galactosidase α fragment-digoxigenin conjugate and the α complementation acceptor, respectively. ED28-digoxigenin consists of β-galactosidase amino acids 1-46, with cysteines at positions 1 and 46, and digoxgenin conjugated to the cysteines. Assays involving ED and EA are described in greater detail in U.S. Pat. No. 4,708,929. E28-digoxigenin and EA are usually components of a CEDIA™ assay; however, in this set of experiments, antibodies are not present. Four or five substrate concentrations were used to obtain the results. The turnover figures are given for EA+ED28-digoxigenin, not β-galactosidase.

β-galactosidase [4] = test: CEDIA T3 assay with new substrates; type: biochemical; settings: for % Open / % Inhib / High calib % Mod / High calib % Net: T3 assay, relative to OCNPG, [Substrate]/Km: DNPG 3.3x, m-CN-NPG 4.1x, NGPG 2.0x; for % Open: absence of antibody; for % Inhib: inhibitory antibody; for High calib % Mod / High calib % Net: saturating analyte
Excerpt: as §2, §3, §4, §5, §6, §7, §8

Solubility of substrates = type: physicochemical
Excerpt: as §1

[5] = Absorbance wavelength maximum and molar extinction coefficient of substrate and reaction product; type: physicochemical; settings: for Product λmax / Product ε: reaction product; for Product ε / Substrate ε: molar extinction coefficient
Excerpt: as §1

β-galactosidase [6] = molecular target: β-galactosidase (Escherichia coli, UniProt P00722); test: Kinetic properties of substrates with β-galactosidase; type: biochemical; settings: for Vm Ratio to ONPG: relative to ONPG; for Km: four or five substrate concentrations
Procedure: as §9

β-galactosidase [7] = test: CEDIA assays (T3, digoxin and folate), overall; type: biochemical
Excerpt: as §2, §3
The terms in table 3 are defined as follows. […]

Chain of β-galactosidase (Escherichia coli, UniProt P00722) (P00722 2-1024): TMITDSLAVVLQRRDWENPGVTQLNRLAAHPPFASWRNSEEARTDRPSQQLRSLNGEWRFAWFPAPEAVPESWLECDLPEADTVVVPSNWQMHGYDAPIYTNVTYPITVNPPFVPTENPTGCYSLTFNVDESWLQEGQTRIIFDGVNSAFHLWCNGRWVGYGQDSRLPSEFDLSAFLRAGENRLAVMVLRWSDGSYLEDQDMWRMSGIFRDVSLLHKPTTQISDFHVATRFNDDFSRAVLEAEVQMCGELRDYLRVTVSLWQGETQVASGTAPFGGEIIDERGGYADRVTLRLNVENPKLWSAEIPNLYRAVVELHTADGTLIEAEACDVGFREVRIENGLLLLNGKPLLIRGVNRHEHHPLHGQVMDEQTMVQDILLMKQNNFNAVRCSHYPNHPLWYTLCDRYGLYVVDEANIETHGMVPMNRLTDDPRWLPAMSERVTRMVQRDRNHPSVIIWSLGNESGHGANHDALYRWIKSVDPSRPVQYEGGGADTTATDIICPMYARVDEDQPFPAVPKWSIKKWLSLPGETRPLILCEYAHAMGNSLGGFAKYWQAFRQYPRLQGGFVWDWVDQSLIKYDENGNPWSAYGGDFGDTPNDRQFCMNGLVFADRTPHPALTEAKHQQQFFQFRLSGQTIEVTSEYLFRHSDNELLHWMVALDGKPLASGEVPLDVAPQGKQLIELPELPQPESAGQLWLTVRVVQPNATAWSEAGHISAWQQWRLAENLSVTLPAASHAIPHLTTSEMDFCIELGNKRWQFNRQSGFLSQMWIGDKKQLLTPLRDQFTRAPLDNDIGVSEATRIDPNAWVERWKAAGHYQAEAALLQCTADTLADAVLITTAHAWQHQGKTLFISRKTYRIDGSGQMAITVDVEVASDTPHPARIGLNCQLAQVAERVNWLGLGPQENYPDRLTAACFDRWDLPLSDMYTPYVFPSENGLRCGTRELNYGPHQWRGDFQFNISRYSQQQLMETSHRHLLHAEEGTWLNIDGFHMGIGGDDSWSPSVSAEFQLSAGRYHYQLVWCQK

SMILES	Hydrolysis [1] [mA/Day]	% Open (β-galactosidase [2]) [%]	% Inhib (β-galactosidase [2]) [%]	High calib % Mod (β-galactosidase [2]) [%]	High calib % Net (β-galactosidase [2]) [%]	% Open (β-galactosidase [3]) [%]	% Inhib (β-galactosidase [3]) [%]	High calib % Mod (β-galactosidase [3]) [%]	High calib % Net (β-galactosidase [3]) [%]	Km (EA + ED28-digoxigenin) [mg/mL]	Vm Ratio to ONPG (EA + ED28-digoxigenin)	Turnover % ONPG (EA + ED28-digoxigenin) [%]	% Open (β-galactosidase [4]) [%]	% Inhib (β-galactosidase [4]) [%]	Solubility (Solubility of substrates) [µg/mL]	Product λmax [5] [nm]	Product ε [5] [OD/M]	Substrate λmax [5] [nm]	Substrate ε [5] [OD/M]	Vm Ratio to ONPG (β-galactosidase [6])	further results
O=[N+]([O-])c1ccc(O[C@@H]2O[C@H](CO)[C@H](O)[C@H](O)[C@H]2O)cc1[N+](=O)[O-] [3,4 DNPG, 3,4-Dinitrophenyl-β-D-galactopyranoside]	6	72	77	76	58	92	74	85	72	0.19	2.8	70	73	93	3000 (≈ 8.66 mM)	400	12400	280	6000	3.5	High calib % Mod (β-galactosidase [4]): 88%; High calib % Net (β-galactosidase [4]): 71%
COc1cc([N+](=O)[O-])ccc1O[C@@H]1O[C@H](CO)[C@H](O)[C@H](O)[C@H]1O [NGPG, o-Methoxy-p-nitrophenyl-β-D-galactopyranoside]	1	85	104	102	84	81	98	85	72	0.28	3.6	56	41	87	1000 (≈ 3.02 mM)	430	17600	298	7400	3.7	affinity compared with ONPG (in words) (EA + ED28-digoxigenin): somewhat lower affinity than ONPG; High calib % Mod (β-galactosidase [4]): 82%; High calib % Net (β-galactosidase [4]): 37%; affinity compared with ONPG (in words) (β-galactosidase [6]): somewhat lower affinity than ONPG
O=Cc1cc([N+](=O)[O-])ccc1O[C@@H]1O[C@H](CO)[C@H](O)[C@H](O)[C@H]1O [NSPG]	19									0.14	3.0	54			< 40000	382	16500	298	14900	3.2	solubility (in words) (Solubility of substrates): high aqueous solubility; Km (β-galactosidase [6]): 334 µM
O=[N+]([O-])c1ccccc1O[C@@H]1O[C@H](CO)[C@H](O)[C@H](O)[C@H]1O [ONPG, o-nitrophenyl-β-D-galactopyranoside, reference compound]	0.4									0.15	1.0	100			10000 (≈ 33.2 mM)	414	3000	315	2000	1.0	signal in CEDIA assays (in words) (β-galactosidase [7]): exceptionally weak signal; Km (β-galactosidase [6]): 266 µM
N#Cc1cc(O[C@@H]2O[C@H](CO)[C@H](O)[C@H](O)[C@H]2O)ccc1[N+](=O)[O-] [m-CN-NPG, m-Cyano-p-nitrophenyl-β-D-galactopyranoside]	5	62	93	103	72	82	91	85	71	0.14	2.4	44	71	100	< 8000	405	17000	308	9200	3.0	High calib % Mod (β-galactosidase [4]): 100%; High calib % Net (β-galactosidase [4]): 63%; T3 assay results on increasing substrate concentration (in words) (β-galactosidase [4]; substrate increased from 2.7×Km to 4.1×Km): improved
